The text below walks through data of ChEMBL document CHEMBL1121865, “Epimeric cis-decahydroquinoline-5-carboxylic acids: effects on gamma-aminobutyric acid uptake and receptor binding in vitro” (J Med Chem, 1981).

Assay [1] has as its target GABA transporter (Rattus norvegicus) (UniProt P31647+P23978+P31646+P48056). Description: Percent inhibition of high affinity [3H]GABA uptake into rat brain synaptosomes at 100 uM. In kind it is functional, subcellular.
The target of assay [2] is T1, GABA-A receptor; anion channel (Rattus norvegicus) (UniProt O09028+P15431+P18506+P18508+P19969+P20236+P23574+P23576+P28471+P28473+P30191+P62813+P63079+P63138+Q91ZM7+Q9ES14). Kind of assay: Percent displacement of [3H]GABA at Gamma-aminobutyric acid receptor of rat brain membranes at 100 uM. It is filed as cell membranes. The conditions noted are these: Membrane.
The target in assay [3] is T1, GABA-A receptor; anion channel (Rattus norvegicus). The note with it: Membrane, 0.01 uM.
Description: Percent displacement of [3H]GABA at Gamma-aminobutyric acid receptor of rat brain membranes at 0.01 uM

Sequence of GABA transporter (Rattus norvegicus) (P31646 whole entry, looked up): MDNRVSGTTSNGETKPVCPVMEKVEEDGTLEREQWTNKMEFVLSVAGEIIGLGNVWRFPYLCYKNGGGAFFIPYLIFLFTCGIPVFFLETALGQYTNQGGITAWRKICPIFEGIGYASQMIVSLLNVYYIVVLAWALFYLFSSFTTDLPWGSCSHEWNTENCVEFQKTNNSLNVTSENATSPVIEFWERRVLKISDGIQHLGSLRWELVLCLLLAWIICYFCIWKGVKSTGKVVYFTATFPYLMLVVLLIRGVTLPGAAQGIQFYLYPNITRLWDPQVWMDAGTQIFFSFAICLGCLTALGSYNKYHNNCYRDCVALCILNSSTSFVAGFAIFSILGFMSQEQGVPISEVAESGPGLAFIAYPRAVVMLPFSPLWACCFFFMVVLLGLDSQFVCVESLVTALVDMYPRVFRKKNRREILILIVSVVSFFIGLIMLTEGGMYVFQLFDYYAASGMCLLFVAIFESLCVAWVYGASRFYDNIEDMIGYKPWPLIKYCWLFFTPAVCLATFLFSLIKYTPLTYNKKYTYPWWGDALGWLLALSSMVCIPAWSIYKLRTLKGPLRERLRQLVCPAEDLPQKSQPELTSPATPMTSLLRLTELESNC
Sequence of GABA transporter (Rattus norvegicus) (P31647 whole entry, looked up): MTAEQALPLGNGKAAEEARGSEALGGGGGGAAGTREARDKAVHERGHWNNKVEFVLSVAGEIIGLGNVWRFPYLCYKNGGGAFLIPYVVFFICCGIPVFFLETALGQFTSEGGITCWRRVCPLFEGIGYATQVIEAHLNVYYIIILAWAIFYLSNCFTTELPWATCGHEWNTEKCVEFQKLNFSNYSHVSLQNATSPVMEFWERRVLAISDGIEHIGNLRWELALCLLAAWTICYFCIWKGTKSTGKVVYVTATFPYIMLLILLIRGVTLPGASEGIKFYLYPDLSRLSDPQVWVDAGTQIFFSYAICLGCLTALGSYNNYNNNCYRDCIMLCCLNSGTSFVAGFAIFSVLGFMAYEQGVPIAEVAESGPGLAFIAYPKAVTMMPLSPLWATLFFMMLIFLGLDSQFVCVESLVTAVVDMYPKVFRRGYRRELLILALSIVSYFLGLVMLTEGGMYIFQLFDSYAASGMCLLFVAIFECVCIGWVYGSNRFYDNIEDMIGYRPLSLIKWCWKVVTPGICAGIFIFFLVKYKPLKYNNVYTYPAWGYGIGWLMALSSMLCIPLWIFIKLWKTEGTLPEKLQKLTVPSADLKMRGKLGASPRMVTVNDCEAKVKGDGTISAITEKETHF
Sequence of GABA transporter (Rattus norvegicus) (P48056 whole entry, looked up): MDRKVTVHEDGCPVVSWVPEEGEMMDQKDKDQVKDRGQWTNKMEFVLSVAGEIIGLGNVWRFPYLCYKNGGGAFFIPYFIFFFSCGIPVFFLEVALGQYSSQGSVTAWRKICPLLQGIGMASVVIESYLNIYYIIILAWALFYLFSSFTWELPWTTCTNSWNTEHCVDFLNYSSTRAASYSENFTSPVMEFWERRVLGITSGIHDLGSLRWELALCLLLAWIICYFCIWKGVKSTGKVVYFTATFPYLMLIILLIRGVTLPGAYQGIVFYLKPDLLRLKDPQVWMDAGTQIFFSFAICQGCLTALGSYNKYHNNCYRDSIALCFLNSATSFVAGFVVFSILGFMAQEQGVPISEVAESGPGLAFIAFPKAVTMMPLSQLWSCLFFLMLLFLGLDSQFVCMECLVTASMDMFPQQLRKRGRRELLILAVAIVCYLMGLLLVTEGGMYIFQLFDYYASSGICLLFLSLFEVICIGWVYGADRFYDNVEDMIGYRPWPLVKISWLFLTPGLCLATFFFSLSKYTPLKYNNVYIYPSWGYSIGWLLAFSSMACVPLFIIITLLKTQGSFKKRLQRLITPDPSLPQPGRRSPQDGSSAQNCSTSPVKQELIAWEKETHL

For the molecule `O=C(O)C1CCCC2NCCCC21` (cis isomer), the inhibition (as a rule, the relative decrease from the control value, in per cent) in assay [1] came out at 20%. The same molecule registered a Displacement in assay [2] of 17%.

Molecule `NCc1cc(O)no1` registered a Displacement in assay [3] of 86%. For the molecule `NCCCC(=O)O`, the Displacement in assay [3] is 48%.

Regarding `O=C(O)C1CCCC2NCCCC21` (stereo in doubt), in assay [1], the inhibition is < 1%. The Displacement in assay [2] was < 5%.
